Assay results as given in patent publication US10300151B2, “Methods and systems for noninvasive fluorescence-based functional imaging of kidneys” (Board of Regents, The University of Texas System, priority 2015, dated 2019).
Entries after “also recorded” stand apart in the source; their conditions may differ.

Key:
kidneys of Balb/c mice [1] = assay: Noninvasive whole-body fluorescence kidney imaging of intact mice after i.v. injection of fluorophore; assay type: in vivo, mouse; settings: for excretion route: fluorescence from bladder at 65 min / intestines after 10 min p.i.; for skin clearance half-life: observed during 60 min p.i.; for fraction of first phase of skin intensity increase / fraction of second phase of skin intensity increase / skin fluorescence intensity increase half-life, first phase / skin fluorescence intensity increase half-life, second phase: two-phase exponential growth, FIG. 10; for duration of kidney contrast/visualisation in noninvasive imaging: after i.v. injection
Experimental: Invasive and noninvasive imaging of normal mice, UUO mice and sham mice were performed using the following protocol. The protocol for invasive and noninvasive imaging differed in only in that for invasive imaging, the mouse's kidneys are exposed via removal of the mouse's back skin.
Prior to imaging, hair-removed Balb/c mice were anesthetized using 3% isoflurane. A catheter filled with PBS was inserted into each mouse's tail vein. The mouse, along with its tail vein catheter, was placed in supine position on the stage of fluorescence imaging system, with the mouse's back facing the excitation light and charge-coupled device (CCD) camera.
Fluorescence imaging of the each of mice proceeded as follows. Bright-field and fluorescence images of the each mouse was taken before injection with fluorophores. When its breathing rate decreased to 10-14 times per 15 s, the mouse was injected with 200 μL of a fluorophore solution. The fluorophore solutions used were PBS solutions of either an organic dye (Cy3, Cy7, or IRDye 800CW) or GS-AuNPs. The concentrations of Cy3, Cy7 and IRDye 800CW were 100, 10, and 10 μM, respectively, and these solutions were filtered through a 0.02 μm filter before injection. The solution of NIR-emitting GS-AuNPs contained 10 mg/mL gold atom as determined by inductively coupled plasma mass spectrometry (ICP-MS). Once the designated fluorophore solution was injected, whole body fluorescence images of each mouse were collected consecutively until 60 minutes post-injection. To ensure reproducible results, each mouse's anesthesia status was maintained at constant level before injection of fluorophores. Unlike clinical renographic procedures, no diuretic agents were used, and the animals were not hydrated prior to fluorescence imaging.
The parameters for acquiring the fluorescence images were shown as follows: Cy3, excitation at 550/10 nm, emission at 600/20 nm, exposure time of 2 s, no binning (FIGS. 4, 6, and 7); Cy7, excitation of 710/10 nm, emission of 790/20 nm, exposure time of 5 s, 2×2 binning (FIGS. 5, 8, and 9); IRDye 800CW, excitation of 710/10 nm, emission of 790/20 nm, 2×2 binning, exposure time of 5 s (FIGS. 21 and 55); GS-AuNPs, excitation of 710/10 nm, emission of 830/20 nm; exposure time of 30 s, 2×2 binning (FIGS. 24, 36, and 54).
Regions of interest (ROIs) designated “kidney areas” were defined around the left and right kidneys on the fluorescence image showing high kidney intensity. Four ROIs designated “surrounding tissue areas” were drawn in proximity to the each kidney; the mean values of these four ROIs were considered the “mean intensity of surrounding tissue area” for the respective kidney. The percentage of kidney contrast enhancement was calculated as follows:
[formula] For GS-AuNPs, the ROIs of “skin” were chosen from the back area close to the tail, so as to avoid the influence of bright kidneys. The time-dependent fluorescence intensity of skin (or kidneys) and percentage of kidney contrast enhancement (FIGS. 10-14, 22, 23, 25, 26, 37, 56, and 57). The curves were fitted with exponential functions to generate the kinetics of kidney contrast change or the kinetics of accumulation and clearance of the fluorophores in the skin and kidneys (FIGS. 10, 22, and 23). Deconvolution and parametric analysis of the kidney TFICs were performed using Origin 8 (FIGS. 27-35; Tables 1 and 2). Pathological Analysis

kidneys of Balb/c mice [2] = assay: Invasive fluorescence kidney imaging of skin-removed mice after i.v. injection of fluorophore; assay type: in vivo, mouse; settings: for time at which skin fluorescence intensity surpasses left and right kidney intensity: kidneys surgically exposed; for time of maximum skin fluorescence intensity: FIG. 26 (Cy7: FIG. 10); for peak skin fluorescence intensity as percentage of maximum kidney fluorescence intensity: kidney fluorescence from invasive imaging data, FIG. 26
Experimental: Invasive and noninvasive imaging of normal mice, UUO mice and sham mice were performed using the following protocol. The protocol for invasive and noninvasive imaging differed in only in that for invasive imaging, the mouse's kidneys are exposed via removal of the mouse's back skin. […] As shown in panel a, the kidneys are paired bean-shaped organs lying on either side of the vertebral column. The right kidney (RK) of a mouse is usually slightly higher than it left kidney (LK). Since the kidneys locate retroperitoneally against the dorsal body wall, LK (shown in panel b) and RK (shown in panel c) can be exposed once the back skin above the kidneys was removed. The interference of skin on kidney imaging can be avoided in such an invasive way. Prior to imaging, hair-removed Balb/c mice were anesthetized using 3% isoflurane. A catheter filled with PBS was inserted into each mouse's tail vein. The mouse, along with its tail vein catheter, was placed in supine position on the stage of fluorescence imaging system, with the mouse's back facing the excitation light and charge-coupled device (CCD) camera. Fluorescence imaging of the each of mice proceeded as follows. Bright-field and fluorescence images of the each mouse was taken before injection with fluorophores. When its breathing rate decreased to 10-14 times per 15 s, the mouse was injected with 200 μL of a fluorophore solution. The fluorophore solutions used were PBS solutions of either an organic dye (Cy3, Cy7, or IRDye 800CW) or GS-AuNPs. The concentrations of Cy3, Cy7 and IRDye 800CW were 100, 10, and 10 μM, respectively, and these solutions were filtered through a 0.02 μm filter before injection. The solution of NIR-emitting GS-AuNPs contained 10 mg/mL gold atom as determined by inductively coupled plasma mass spectrometry (ICP-MS). Once the designated fluorophore solution was injected, whole body fluorescence images of each mouse were collected consecutively until 60 minutes post-injection. To ensure reproducible results, each mouse's anesthesia status was maintained at constant level before injection of fluorophores. Unlike clinical renographic procedures, no diuretic agents were used, and the animals were not hydrated prior to fluorescence imaging. The parameters for acquiring the fluorescence images were shown as follows: Cy3, excitation at 550/10 nm, emission at 600/20 nm, exposure time of 2 s, no binning (FIGS. 4, 6, and 7); Cy7, excitation of 710/10 nm, emission of 790/20 nm, exposure time of 5 s, 2×2 binning (FIGS. 5, 8, and 9); IRDye 800CW, excitation of 710/10 nm, emission of 790/20 nm, 2×2 binning, exposure time of 5 s (FIGS. 21 and 55); GS-AuNPs, excitation of 710/10 nm, emission of 830/20 nm; exposure time of 30 s, 2×2 binning (FIGS. 24, 36, and 54). Regions of interest (ROIs) designated “kidney areas” were defined around the left and right kidneys on the fluorescence image showing high kidney intensity. Four ROIs designated “surrounding tissue areas” were drawn in proximity to the each kidney; the mean values of these four ROIs were considered the “mean intensity of surrounding tissue area” for the respective kidney. The percentage of kidney contrast enhancement was calculated as follows: [formula] For GS-AuNPs, the ROIs of “skin” were chosen from the back area close to the tail, so as to avoid the influence of bright kidneys. The time-dependent fluorescence intensity of skin (or kidneys) and percentage of kidney contrast enhancement (FIGS. 10-14, 22, 23, 25, 26, 37, 56, and 57). The curves were fitted with exponential functions to generate the kinetics of kidney contrast change or the kinetics of accumulation and clearance of the fluorophores in the skin and kidneys (FIGS. 10, 22, and 23). Deconvolution and parametric analysis of the kidney TFICs were performed using Origin 8 (FIGS. 27-35; Tables 1 and 2). Pathological Analysis

kidneys of UUO mice = assay: Noninvasive fluorescence renography in unilateral ureter obstruction (UUO) and sham mice; assay type: in vivo, mouse
Source text: To obtain unilateral […] obstruction (UUO) mice, male Balb/c mice (6-8 weeks old, with about 20 g) were anesthetized with isoflurane. For each mouse, the left kidney was exposed an incision on the left flank, and the left ureter was obstructed completely near the renal pelvis using a nonabsorbable suture. For mice in the sham group, the left ureter was exposed using the same surgical procedure but ureter ligation was not performed. Female Balb/c mice (8-10 weeks old, weighing about 20 g) were used as normal (non-UUO) mice for other experiments, such as those shown in FIGS. 4-19. The hair on the Balb/c mice was removed using hair removal lotion at least 24 h before the imaging experiments.
Fluorescence imaging of the each of mice proceeded as follows. Bright-field and fluorescence images of the each mouse was taken before injection with fluorophores. […] The solution of NIR-emitting GS-AuNPs contained 10 mg/mL gold atom as determined by inductively coupled plasma mass spectrometry (ICP-MS). Once the designated fluorophore solution was injected, whole body fluorescence images of each mouse were collected consecutively until 60 minutes post-injection. […] Unlike clinical renographic procedures, no diuretic agents were used, and the animals were not hydrated prior to fluorescence imaging. […]

[3] = in mice, blood; cited from earlier work
[4] = 0.6 min p.i., noninvasive, N=3, mean±s.d.
[5] = 60 min p.i., noninvasive, N=3, mean±s.d.
[6] = noninvasive, single exponential decay

Compound | excretion route (kidneys of Balb/c mice [1]) | skin clearance half-life (kidneys of Balb/c mice [1]) | fraction of first phase of skin intensity increase (kidneys of Balb/c mice [1]) | fraction of second phase of skin intensity increase (kidneys of Balb/c mice [1]) | skin fluorescence intensity increase half-life, first phase (kidneys of Balb/c mice [1]) | skin fluorescence intensity increase half-life, second phase (kidneys of Balb/c mice [1]) | time at which skin fluorescence intensity surpasses left and right kidney intensity (kidneys of Balb/c mice [2]; invasive imaging) | duration of kidney contrast/visualisation in noninvasive imaging (kidneys of Balb/c mice [1]; intact mouse) | time of maximum skin fluorescence intensity (kidneys of Balb/c mice [2]) | peak skin fluorescence intensity as percentage of maximum kidney fluorescence intensity (kidneys of Balb/c mice [2]) | further results
CCN1C(=CC=CC2=[N+](CCCCCC(=O)O)c3ccc(S(=O)(=O)O)cc3C2(C)C)C(C)(C)c2cc(S(=O)(=O)[O-])ccc21 [Cy3, disulfo-Cy3 carboxylic acid] | can be excreted into urine through renal clearance | 56.5 min | 18.1% | 81.9% | 0.2 min | 2.8 min | 1.5 min p.i. | – | – | – | contrast enhancement of noninvasively imaged mouse kidney (kidneys of Balb/c mice [1]; intact mouse, Ex/Em 550/600 nm): failed to enhance contrast
CCN1C(=CC=CC=CC=CC2=[N+](CCCCCC(=O)O)c3ccc(S(=O)(=O)O)cc3C2(C)C)C(C)(C)c2cc(S(=O)(=O)[O-])ccc21 [Cy7, disulfo-Cy7 carboxylic acid] | can be excreted into urine through renal clearance; also recorded: can also be excreted through a hepatic route | No clearance of Cy7 from the skin was observed during 60 min p.i. | 33.5% | 66.5% | 1.5 min | 7.4 min | 13.2 min p.i. | less than 10 min | 35 min p.i. | 95.3% | –
CC1(C)C(/C=C/C2=C(Oc3ccc(S(=O)(=O)O)cc3)C(=C/C=C3/N(CCCCS(=O)(=O)O)c4ccc(S(=O)(=O)[O-])cc4C3(C)C)/CCC2)=[N+](CCCCCC(=O)O)c2ccc(S(=O)(=O)O)cc21 [IRDye 800CW, IRDye 800CW carboxylate] | – | – | – | – | – | – | – | less than 5 min | 25 min p.i. | 75.5±9.3% | percentage contrast enhancement of left kidney (LK) (kidneys of Balb/c mice [1]; [4]): 67.6±7.1%; percentage contrast enhancement of right kidney (RK) (kidneys of Balb/c mice [1]; [4]): 49.9±9.0%; percentage of contrast enhancement, LK (kidneys of Balb/c mice [1]; [5]): −4.7±0.8%; percentage of contrast enhancement, RK (kidneys of Balb/c mice [1]; [5]): −4.8±5.1%; time at which skin fluorescence intensity is halfway to saturation (kidneys of Balb/c mice [1]; noninvasive imaging, FIG. 22): 4.1 min; decay half-life of percentage contrast enhancement, LK (kidneys of Balb/c mice [1]; [6]): 4.2 min; decay half-life of percentage contrast enhancement, RK (kidneys of Balb/c mice [1]; [6]): 4.5 min; clearance half-life from kidney, LK, first component (kidneys of Balb/c mice [2]; invasive imaging, FIG. 23): 4.3 min; clearance half-life from kidney, LK, second component (kidneys of Balb/c mice [2]; invasive imaging, FIG. 23): 28.0 min; clearance half-life from kidney, RK, first component (kidneys of Balb/c mice [2]; invasive imaging, FIG. 23): 4.7 min; clearance half-life from kidney, RK, second component (kidneys of Balb/c mice [2]; invasive imaging, FIG. 23): 18.9 min; fraction of first clearance component, LK (kidneys of Balb/c mice [2]; invasive imaging, FIG. 23): 50.1%; fraction of first clearance component, RK (kidneys of Balb/c mice [2]; invasive imaging, FIG. 23): 46.0%; fraction of second clearance component, LK (kidneys of Balb/c mice [2]; invasive imaging, FIG. 23): 49.9%; fraction of second clearance component, RK (kidneys of Balb/c mice [2]; invasive imaging, FIG. 23): 54.0%; time-dependent intensity curves in sham vs UUO mice (kidneys of UUO mice; LK, RK and skin, FIGS. 56-57): very similar profiles of time-dependent intensity curve in sham and UUO mice; visibility of kidneys in UUO mouse (kidneys of UUO mice; noninvasive imaging, UUO mouse): both UUO LK and RK disappeared after 5 min p.i.; elimination half-life (t1/2β) [3]: 58.8 ± 4.8 min
